Measurements from patent US20090191193A1, “Aryl Vinyl Sulfides, Sulfones, Sulfoxides and Sulfonamides, Derivatives Thereof and Therapeutic Uses Thereof” (TEMPLE UNIVERSITY-OF THE COMMONWEALTH SYSTEM OF HIGHER …, priority 2006, published 2009).

Columns and labels:
DU145 (prostate cancer) = assay: Effect on tumor cell lines, viable cell count by trypan blue exclusion (Latham et al.): DU145; assay type: cell-based; details: DU145 prostate cancer cells, viable cell count 96 hours after treatment
BT20 (breast carcinoma) = assay: Effect on tumor cell lines, viable cell count by trypan blue exclusion (Latham et al.): BT20; assay type: cell-based; details: Homo sapiens, BT-20, BT20 breast carcinoma cells, viable cell count 96 hours after treatment
Procedure: (§1) The effect of the compounds of the invention on tumor cells was determined by the assay described by Latham et al., Oncogene 12:827-837 (1996). Tumor cells DU145 (prostate cancer), K562 (chronic myelogenous leukaemia), BT20 (breast carcinoma), H157 (non small cell lung carcinoma), or DLD1 (colon carcinoma) were plated in 6-well dishes at a cell density of 1.0×10^5 cells per 35-mm^2 well. The plated cells were treated 24 hours later with a compound of the invention dissolved in DMSO at multiple concentrations ranging from 100 nM to 10 μM. The total number of viable cells was determined 96 hours later by trypsinizing the wells and counting the number of viable cells, as determined by trypan blue exclusion, using a hemacytometer. Normal HFL cells were treated with the same compounds under the same conditions of concentration and time.

[1] = tested on: H157 (non small cell lung carcinoma); assay: Effect on tumor cell lines, viable cell count by trypan blue exclusion (Latham et al.): H157; assay type: cell-based; details: Homo sapiens, NCI-H157, H157 non small cell lung carcinoma cells, viable cell count 96 hours after treatment
Procedure: as §1

DLD1 (colon carcinoma) = assay: Effect on tumor cell lines, viable cell count by trypan blue exclusion (Latham et al.): DLD1; assay type: cell-based; details: Homo sapiens, DLD-1, DLD1 colon carcinoma cells, viable cell count 96 hours after treatment
Procedure: as §1

[2] = tested on: K562 (chronic myelogenous leukaemia); assay: Effect on tumor cell lines, viable cell count by trypan blue exclusion (Latham et al.): K562; assay type: cell-based; details: K562 chronic myelogenous leukaemia cells, viable cell count 96 hours after treatment

| Structure (SMILES) | IC50 (DU145 (prostate cancer); Homo sapiens, DU-145, 96 h) [µM] | IC50 (BT20 (breast carcinoma)) [µM] | IC50 [1] [µM] | IC50 (DLD1 (colon carcinoma)) [µM] | melting point [°C] | IC50 ([2]; Homo sapiens, K562, 96 h) [µM] | IC50 (DU145 (prostate cancer)) [µM] | IC50 [2] [µM] |
| --- | --- | --- | --- | --- | --- | --- | --- | --- |
| COc1ccc(CS(=O)(=O)/C(=C/c2ccc(F)cc2)C(N)=O)cc1 [Example 172] | > 20 | > 20 | > 20 | > 20 | 158 to 161 |  |  |  |
| COc1ccc(CS(=O)(=O)/C(=C/c2c(OC)cccc2OC)C(N)=O)cc1 [Example 173] | > 20 | > 20 | > 20 | > 20 | 166 to 168 |  |  |  |
| COc1cc(OC)c(/C=C(\C(N)=O)S(=O)(=O)Cc2ccc(Cl)cc2)c(OC)c1 [Example 174] | > 20 | > 20 | > 20 | > 20 | 176 to 178 |  |  |  |
| NC(=O)/C(=C\c1ccc([N+](=O)[O-])cc1)S(=O)(=O)Cc1ccc(Cl)cc1 [Example 176] | > 20 | > 20 | > 20 | > 20 | 190 to 192 |  |  |  |
| COc1ccc(S(=O)(=O)/C(=C/c2c(OC)cccc2OC)C(N)=O)cc1 [Example 183] | > 20 | > 20 | > 20 | > 20 | 160 to 162 |  |  |  |
| COc1cc(OC)c(OC)cc1/C=C(\C#N)S(=O)(=O)Nc1ccc(C)cc1C [Example 258] | > 100 |  |  |  | 161 to 163 | 50 to 100 |  |  |
| Cc1ccc(NS(=O)(=O)/C(C#N)=C/c2cc(C)ccc2C)c(C)c1 [Example 259] | > 100 |  |  |  | 139 to 141 | 50 to 100 |  |  |
| COc1ccc(/C=C(\C#N)S(=O)(=O)Nc2ccc(C)cc2C)c(F)c1 [Example 261] | > 100 |  |  |  | 142 to 144 | 50 to 100 |  |  |
| Cc1ccc(NS(=O)(=O)/C(C#N)=C/c2ccc(C)c(C)c2)c(C)c1 [Example 264] | > 100 |  |  |  | 166 to 169 | > 100 |  |  |
| COc1ccccc1/C=C(\C#N)S(=O)(=O)Nc1ccc(C)cc1C [Example 266, (E)-2-[(2,4-dimethylphenyl)sulfamoyl]-3-(2-methoxyphenyl)acrylonitrile] | > 100 |  |  |  | 136 to 139 | 50 to 100 |  |  |
| COc1cc(/C=C(\C#N)S(=O)(=O)Nc2ccc(C)cc2C)cc(OC)c1OC [Example 268] | > 100 |  |  |  | 178 to 180 | 50 to 100 |  |  |
| COc1ccc(/C=C(\C#N)S(=O)(=O)Nc2ccc(C)cc2C)cc1 [Example 270] | > 100 |  |  |  | 127 to 129 | > 100 |  |  |
| Cc1ccc(NS(=O)(=O)/C(C#N)=C/c2ccc(O)cc2)c(C)c1 [Example 271] | > 100 |  |  |  | 152 to 154 | > 100 |  |  |
| COc1ccc(/C=C(\C#N)S(=O)(=O)Nc2ccc(C)cc2C)c(OC)c1OC [Example 272] | > 100 |  |  |  | 124 to 125 | > 100 |  |  |
| CCOc1ccc(/C=C(\C#N)S(=O)(=O)Nc2ccc(C)cc2C)cc1OC [Example 273] | > 100 |  |  |  | 146 to 150 | > 100 |  |  |
| CCOc1cc(/C=C(\C#N)S(=O)(=O)Nc2ccc(C)cc2C)ccc1O [Example 275] | > 100 |  |  |  | 146 to 148 | 50 to 100 |  |  |
| COc1ccc(NS(=O)(=O)/C(C#N)=C/c2c(OC)cc(OC)cc2OC)cc1 [Example 279] |  |  |  |  | 151 to 154 |  | 25 to 50 | 10 to 25 |
| COc1ccc(NS(=O)(=O)/C(C#N)=C/c2ccc(N(C)C)cc2)cc1 [Example 280] | > 100 |  |  |  | 166 to 169 | 50 to 100 |  |  |
| COc1ccc(NS(=O)(=O)/C(C#N)=C/c2sccc2C)cc1 [Example 281] | > 100 |  |  |  | 154 to 156 | > 100 |  |  |
| COc1ccc(NS(=O)(=O)/C(C#N)=C/c2ccc(C)s2)cc1 [Example 283] | > 100 |  |  |  | 118 to 121 | > 100 |  |  |
| COc1ccc(NS(=O)(=O)/C(C#N)=C/c2cc(OC)c(OC)cc2OC)cc1 [Example 284] | > 100 |  |  |  | 171 to 173 | 25 to 50 |  |  |
| COc1ccc(NS(=O)(=O)/C(C#N)=C/c2ccc(OC)c(OC)c2OC)cc1 [Example 285] | > 100 |  |  |  | 140 to 142 | 50 to 100 |  |  |
| CCOc1ccc(/C=C(\C#N)S(=O)(=O)Nc2ccc(OC)cc2)cc1OC [Example 287] | > 100 |  |  |  | 111 to 113 | > 100 |  |  |
| COc1ccc(NS(=O)(=O)/C(C#N)=C/c2ccc(O)cc2)cc1 [Example 289] | > 100 |  |  |  | 181 to 182 | 50 to 100 |  |  |
| COc1ccc(NS(=O)(=O)/C(C#N)=C/c2ccc(Br)cc2)cc1 [Example 291] |  |  |  |  | 102 to 103 |  | 50 to 100 | 50 to 100 |
| COc1ccc(NS(=O)(=O)/C(C#N)=C/c2ccccc2O)cc1 [Example 292] | > 100 |  |  |  | 197 to 198 | 50 to 100 |  |  |

Next, values leading:

| IC50 (DU145 (prostate cancer); Homo sapiens, DU-145, 96 h) [µM] | IC50 (BT20 (breast carcinoma)) [µM] | IC50 [1] [µM] | IC50 (DLD1 (colon carcinoma)) [µM] | melting point [°C] | IC50 ([2]; Homo sapiens, K562, 96 h) [µM] | IC50 (DU145 (prostate cancer)) [µM] | IC50 [2] [µM] | Structure (SMILES) |
| --- | --- | --- | --- | --- | --- | --- | --- | --- |
| > 20 | > 20 | > 20 | > 20 | 201 to 205 |  |  |  | NC(=O)/C(=C\c1ccc(Cl)cc1)S(=O)(=O)Cc1ccc(Cl)cc1Cl [Example 150] |
| 10 to 20 | 10 to 20 | 10 to 20 | 10 to 20 | 150 to 154 |  |  |  | COc1cccc(OC)c1/C=C(\C(N)=O)S(=O)(=O)Cc1ccc(Cl)cc1 [Example 175] |
| 1 to 10 | 1 to 10 | 1 to 10 | 1 to 10 | 151 to 154 |  |  |  | NC(=O)/C(=C\c1ccc(F)cc1)S(=O)(=O)c1ccccc1 [Example 177] |
| 10 to 20 | 10 to 20 | 10 to 20 | 10 to 20 | 168 to 172 |  |  |  | COc1cccc(OC)c1/C=C(\C(N)=O)S(=O)(=O)c1ccccc1 [Example 179] |
| 50 to 100 |  |  |  | 192 to 194 | 25 to 50 |  |  | Cc1ccc(NS(=O)(=O)/C(C#N)=C/c2c[nH]c3ccccc23)c(C)c1 [Example 253] |
| 50 to 100 |  |  |  | 132 to 134 | 50 to 100 |  |  | COc1cc(OC)c(/C=C(\C#N)S(=O)(=O)Nc2ccc(C)cc2C)c(OC)c1 [Example 254] |
| 25 to 50 |  |  |  | 168 to 171 | 25 to 50 |  |  | Cc1ccc(NS(=O)(=O)/C(C#N)=C/c2ccc(N(C)C)cc2)c(C)c1 [Example 255] |
| 25 to 50 |  |  |  | 116 to 119 | 1 to 10 |  |  | Cc1ccc(NS(=O)(=O)/C(C#N)=C/c2ccccc2Cl)c(C)c1 [Example 256] |
| 50 to 100 |  |  |  | 166 to 168 | 10 to 25 |  |  | Cc1ccc(NS(=O)(=O)/C(C#N)=C/c2sccc2C)c(C)c1 [Example 257] |
| 25 to 50 |  |  |  | 164 to 166 | 10 to 25 |  |  | Cc1ccc(NS(=O)(=O)/C(C#N)=C/c2ccc(Br)cc2)c(C)c1 [Example 262] |
| < 1 |  |  |  | 171 to 173 | < 1 |  |  | Cc1ccc(NS(=O)(=O)/C(C#N)=C/c2cc(Cl)cc(Cl)c2Cl)c(C)c1 [Example 263] |
| 50 to 100 |  |  |  | 158 to 160 | 25 to 50 |  |  | Cc1ccc(NS(=O)(=O)/C(C#N)=C/c2ccc(C)s2)c(C)c1 [Example 265] |
| 50 to 100 |  |  |  | 158 to 161 | 50 to 100 |  |  | Cc1ccc(NS(=O)(=O)/C(C#N)=C/c2ccc(Cl)cc2)c(C)c1 [Example 267] |
| 1 to 10 |  |  |  | 231 to 235 | 1 to 10 |  |  | Cc1ccc(NS(=O)(=O)/C(C#N)=C/c2c[nH]c3ccc(Br)cc23)c(C)c1 [Example 269] |
| 50 to 100 |  |  |  | 141 to 143 | 50 to 100 |  |  | Cc1ccc(NS(=O)(=O)/C(C#N)=C/c2ccc(Cl)c(Cl)c2)c(C)c1 [Example 274] |
| 10 to 25 |  |  |  | 111 to 112 | 10 to 25 |  |  | COc1ccc(NS(=O)(=O)/C(C#N)=C/c2ccccc2OCc2ccccc2)cc1 [Example 277] |
| 50 to 100 |  |  |  | 201 to 205 | 50 to 100 |  |  | COc1ccc(NS(=O)(=O)/C(C#N)=C/c2c[nH]c3ccccc23)cc1 [Example 278] |
| 50 to 100 |  |  |  | 125 to 127 | 50 to 100 |  |  | COc1ccc(NS(=O)(=O)/C(C#N)=C/c2cc(C)ccc2C)cc1 [Example 282] |
| 50 to 100 |  |  |  | 84 to 86 | 25 to 50 |  |  | COc1ccc(NS(=O)(=O)/C(C#N)=C/c2ccc(Cl)c(Cl)c2)cc1 [Example 288] |
| 50 to 100 |  |  |  | 95 to 96 | 25 to 50 |  |  | COc1ccc(NS(=O)(=O)/C(C#N)=C/c2ccc(Cl)cc2)cc1 [Example 290] |
